Reference: the supplement of paper PMC11986102
± gives the standard deviation of the averaged measurements.

Key:
Test in all cases: OD600 after 10 h growth (baseline-subtracted); higher = more bacterial growth (less inhibition)
[1] = system: Klebsiella pneumoniae MKP103
Description: (§1)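 Broth microdilution growth assay in Mueller Hinton broth, 100 µL in 96-well plates, inoculated 1:200 from OD600 0.1 overnight cultures by pinning, 37 °C with shaking at 800 rpm, 1:2 serial dilutions from 128 µg/mL (64 µg/mL for Ebastine). The read-out is OD600 after 10 h; curves were baseline-corrected by subtracting the minimum of the 2nd-4th measurements. Three biological replicates, with water and DMSO no-compound controls.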

[2] = system: Staphylococcus aureus Newman
Description: as §1

[3] = system: Escherichia coli IAI1
Description: as §1

[4] = system: Pseudomonas aeruginosa PA14
Description: as §1

[5] = system: Escherichia coli CFT073 (UPEC)
Description: as §1

COc1cc2c(cc1Cc1cccc(Cl)c1F)c(=O)c(C(=O)O)cn2[C@H](CO)C(C)C [Elvitegravir]
OD600 after 10 h growth
Settings | [1] | [2] | [3] | [4] | [5]
0.1 µg/mL | 0.671 ± 0.066 | 1.07 ± 0.025 | 0.803 ± 0.042 | 0.752 ± 0.043 | 0.782 ± 0.064
0.2 µg/mL | 0.666 ± 0.062 | 1.07 ± 0.038 | 0.846 ± 0.12 | 0.747 ± 0.042 | 0.768 ± 0.052
0.5 µg/mL | 0.672 ± 0.062 | 1.08 ± 0.044 | 0.816 ± 0.028 | 0.751 ± 0.043 | 0.793 ± 0.026
1 µg/mL | 0.664 ± 0.057 | 1.08 ± 0.041 | 0.808 ± 0.028 | 0.748 ± 0.037 | 0.81 ± 0.013
2 µg/mL | 0.671 ± 0.056 | 1.08 ± 0.045 | 0.82 ± 0.027 | 0.761 ± 0.043 | 0.812 ± 0.0066
4 µg/mL | 0.675 ± 0.059 | 0.309 ± 0.27 | 0.818 ± 0.035 | 0.756 ± 0.035 | 0.804 ± 0.025
8 µg/mL | 0.681 ± 0.051 | 0.0327 ± 0.018 | 0.834 ± 0.04 | 0.758 ± 0.034 | 0.793 ± 0.042
16 µg/mL | 0.675 ± 0.047 | 0.0197 ± 0.014 | 0.836 ± 0.037 | 0.743 ± 0.035 | 0.807 ± 0.02
32 µg/mL | 0.651 ± 0.056 | 0.00533 ± 0.0055 | 0.812 ± 0.035 | 0.689 ± 0.049 | 0.806 ± 0.022
64 µg/mL | 0.625 ± 0.056 | 0 | 0.784 ± 0.039 | 0.661 ± 0.048 | 0.766 ± 0.013
128 µg/mL | 0.596 ± 0.021 | 0.013 ± 0.011 | 0.771 ± 0.058 | 0.588 ± 0.054 | 0.733 ± 0.014

CC(C)(C)c1ccc(C(=O)CCCN2CCC(OC(c3ccccc3)c3ccccc3)CC2)cc1 [Ebastine]
OD600 after 10 h growth
Settings | [1] | [2] | [3] | [4] | [5]
0.05 µg/mL | 0.665 ± 0.068 | 1.11 ± 0.022 | 0.808 ± 0.037 | 0.75 ± 0.035 | 0.78 ± 0.064
0.1 µg/mL | 0.667 ± 0.063 | 1.08 ± 0.04 | 0.807 ± 0.039 | 0.752 ± 0.043 | 0.781 ± 0.064
0.2 µg/mL | 0.666 ± 0.067 | 1.14 ± 0.14 | 0.796 ± 0.045 | 0.742 ± 0.044 | 0.783 ± 0.061
0.5 µg/mL | 0.666 ± 0.059 | 1.06 ± 0.036 | 0.793 ± 0.061 | 0.744 ± 0.037 | 0.789 ± 0.061
1 µg/mL | 0.671 ± 0.073 | 1.15 ± 0.17 | 0.812 ± 0.041 | 0.754 ± 0.03 | 0.798 ± 0.057
2 µg/mL | 0.681 ± 0.074 | 1.1 ± 0.092 | 0.816 ± 0.041 | 0.842 ± 0.13 | 0.792 ± 0.047
4 µg/mL | 0.787 ± 0.13 | 1.05 ± 0.039 | 0.808 ± 0.041 | 0.749 ± 0.035 | 0.797 ± 0.038
8 µg/mL | 0.678 ± 0.081 | 1.03 ± 0.046 | 0.81 ± 0.045 | 0.743 ± 0.032 | 0.803 ± 0.047
16 µg/mL | 0.661 ± 0.068 | 0.987 ± 0.02 | 0.848 ± 0.13 | 0.725 ± 0.03 | 0.792 ± 0.029
32 µg/mL | 0.647 ± 0.045 | 0.991 ± 0.027 | 0.778 ± 0.036 | 0.697 ± 0.033 | 0.775 ± 0.026
64 µg/mL | 0.613 ± 0.021 | 1.02 ± 0.031 | 0.754 ± 0.037 | 0.603 ± 0.03 | 0.755 ± 0.018

Cc1c(Cl)c(C)[n+]([O-])c(Cl)c1-c1noc(-c2cc(O)c(O)c([N+](=O)[O-])c2)n1 [Opicapone]
OD600 after 10 h growth
Settings | [1] | [2] | [3] | [4] | [5]
0.1 µg/mL | 0.664 ± 0.073 | 1.07 ± 0.035 | 0.811 ± 0.035 | 0.743 ± 0.039 | 0.786 ± 0.066
0.2 µg/mL | 0.668 ± 0.068 | 1.07 ± 0.051 | 0.855 ± 0.11 | 0.743 ± 0.033 | 0.788 ± 0.076
0.5 µg/mL | 0.669 ± 0.072 | 1.07 ± 0.048 | 0.822 ± 0.043 | 0.764 ± 0.009 | 0.94 ± 0.31
1 µg/mL | 0.681 ± 0.055 | 1.07 ± 0.024 | 0.815 ± 0.042 | 0.829 ± 0.1 | 0.787 ± 0.05
2 µg/mL | 0.744 ± 0.073 | 1.09 ± 0.011 | 0.818 ± 0.049 | 0.747 ± 0.027 | 0.786 ± 0.07
4 µg/mL | 0.791 ± 0.15 | 1.18 ± 0.15 | 0.802 ± 0.061 | 0.81 ± 0.12 | 0.872 ± 0.19
8 µg/mL | 0.839 ± 0.24 | 1.07 ± 0.12 | 0.797 ± 0.066 | 0.709 ± 0.021 | 1.02 ± 0.28
16 µg/mL | 0.781 ± 0.14 | 0.413 ± 0.022 | 0.798 ± 0.054 | 0.677 ± 0.019 | 0.787 ± 0.08
32 µg/mL | 0.682 ± 0.023 | 0.371 ± 0.052 | 0.801 ± 0.03 | 0.678 ± 0.024 | 0.775 ± 0.081
64 µg/mL | 0.669 ± 0.029 | 0.466 ± 0.084 | 0.792 ± 0.021 | 0.658 ± 0.023 | 0.796 ± 0.018
128 µg/mL | 0.632 ± 0.02 | 0.356 ± 0.018 | 0.767 ± 0.054 | 0.603 ± 0.038 | 0.758 ± 0.0082

CC(=O)N[C@H](Cc1ccc2ccccc2c1)C(=O)N[C@H](Cc1ccc(Cl)cc1)C(=O)N[C@H](Cc1cccnc1)C(=O)N[C@@H](CO)C(=O)N[C@@H](Cc1ccc(O)cc1)C(=O)N[C@H](CCCNC(N)=O)C(=O)N[C@@H](CC(C)C)C(=O)N[C@@H](CCCNC(=N)N)C(=O)N1CCC[C@H]1C(=O)N[C@H](C)C(N)=O [Cetrorelix]
OD600 after 10 h growth
Settings | [1] | [2] | [3] | [4] | [5]
0.1 µg/mL | 0.674 ± 0.058 | 1.08 ± 0.021 | 0.865 ± 0.097 | 0.741 ± 0.023 | 0.804 ± 0.06
0.2 µg/mL | 0.679 ± 0.056 | 1.08 ± 0.061 | 0.872 ± 0.092 | 0.742 ± 0.022 | 0.832 ± 0.022
0.5 µg/mL | 0.687 ± 0.05 | 1.08 ± 0.021 | 0.829 ± 0.025 | 0.742 ± 0.023 | 0.8273 ± 0.0061
1 µg/mL | 0.693 ± 0.032 | 1.1 ± 0.013 | 0.828 ± 0.021 | 0.727 ± 0.0098 | 0.812 ± 0.024
2 µg/mL | 0.702 ± 0.025 | 1.1 ± 0.021 | 0.831 ± 0.025 | 0.726 ± 0.015 | 0.827 ± 0.019
4 µg/mL | 0.701 ± 0.019 | 1.11 ± 0.016 | 0.821 ± 0.031 | 0.736 ± 0.038 | 0.83 ± 0.013
8 µg/mL | 0.707 ± 0.017 | 1.11 ± 0.015 | 0.831 ± 0.04 | 0.736 ± 0.037 | 0.806 ± 0.042
16 µg/mL | 0.712 ± 0.014 | 1.117 ± 0.0017 | 0.837 ± 0.038 | 0.754 ± 0.031 | 0.81 ± 0.052
32 µg/mL | 0.717 ± 0.023 | 1.117 ± 0.0067 | 0.814 ± 0.035 | 0.763 ± 0.03 | 0.792 ± 0.081
64 µg/mL | 0.69 ± 0.028 | 1.09 ± 0.021 | 0.8 ± 0.03 | 0.749 ± 0.025 | 0.807 ± 0.069
128 µg/mL | 0.679 ± 0.025 | 1.05 ± 0.019 | 0.786 ± 0.053 | 0.756 ± 0.026 | 0.77 ± 0.06

Cc1cn([C@H]2C[C@H](O)[C@@H](CO)O2)c(=O)[nH]c1=O [Thymidine]
OD600 after 10 h growth
Settings | [1] | [2] | [3] | [4] | [5]
0.1 µg/mL | 0.666 ± 0.071 | 1.08 ± 0.031 | 0.814 ± 0.042 | 0.756 ± 0.035 | 0.783 ± 0.068
0.2 µg/mL | 0.669 ± 0.061 | 1.07 ± 0.036 | 0.952 ± 0.22 | 0.899 ± 0.22 | 0.956 ± 0.32
0.5 µg/mL | 0.67 ± 0.065 | 1.07 ± 0.03 | 0.803 ± 0.052 | 0.749 ± 0.039 | 0.788 ± 0.064
1 µg/mL | 0.666 ± 0.063 | 1.22 ± 0.11 | 0.802 ± 0.057 | 0.748 ± 0.033 | 0.794 ± 0.056
2 µg/mL | 0.674 ± 0.044 | 1.16 ± 0.13 | 0.81 ± 0.059 | 0.758 ± 0.024 | 0.891 ± 0.19
4 µg/mL | 0.69 ± 0.04 | 1.39 ± 0.2 | 0.808 ± 0.056 | 0.853 ± 0.16 | 0.89 ± 0.18
8 µg/mL | 0.838 ± 0.21 | 1.28 ± 0.2 | 0.805 ± 0.056 | 0.748 ± 0.034 | 0.932 ± 0.32
16 µg/mL | 0.773 ± 0.11 | 1.23 ± 0.13 | 0.804 ± 0.045 | 0.745 ± 0.031 | 0.873 ± 0.2
32 µg/mL | 0.684 ± 0.034 | 1.1 ± 0.014 | 0.792 ± 0.045 | 0.738 ± 0.029 | 0.804 ± 0.048
64 µg/mL | 0.672 ± 0.02 | 1.09 ± 0.011 | 0.782 ± 0.028 | 0.718 ± 0.03 | 0.786 ± 0.025
128 µg/mL | 0.645 ± 0.028 | 1.1 ± 0.033 | 0.772 ± 0.039 | 0.645 ± 0.043 | 0.772 ± 0.011

CC1=C(C)C(=O)C(CCCCCCCCCC[P+](c2ccccc2)(c2ccccc2)c2ccccc2)=CC1=O [Visomitin]
OD600 after 10 h growth
Settings | [1] | [2] | [3] | [4] | [5]
0.1 µg/mL | 0.672 ± 0.064 | 1.08 ± 0.037 | 0.805 ± 0.051 | 0.762 ± 0.034 | 0.786 ± 0.05
0.2 µg/mL | 0.672 ± 0.066 | 1.08 ± 0.038 | 0.808 ± 0.04 | 0.757 ± 0.035 | 0.787 ± 0.055
0.5 µg/mL | 0.676 ± 0.067 | 1.09 ± 0.04 | 0.8 ± 0.05 | 0.757 ± 0.05 | 0.785 ± 0.049
1 µg/mL | 0.674 ± 0.06 | 1.08 ± 0.039 | 0.848 ± 0.1 | 0.754 ± 0.047 | 0.785 ± 0.052
2 µg/mL | 0.679 ± 0.069 | 0.0277 ± 0.016 | 0.815 ± 0.023 | 0.856 ± 0.13 | 0.818 ± 0.019
4 µg/mL | 0.686 ± 0.07 | 0.0387 ± 0.03 | 0.795 ± 0.042 | 0.821 ± 0.1 | 0.809 ± 0.009
8 µg/mL | 0.697 ± 0.058 | 0.0433 ± 0.042 | 0.769 ± 0.045 | 0.733 ± 0.037 | 0.777 ± 0.025
16 µg/mL | 0.7 ± 0.051 | 0.0257 ± 0.018 | 0.045 ± 0.03 | 0.717 ± 0.029 | 0.0113 ± 0.0047
32 µg/mL | 0.196 ± 0.068 | 0.0217 ± 0.0091 | 0.0307 ± 0.03 | 0.681 ± 0.039 | 0.007 ± 0.0056
64 µg/mL | 0.00967 ± 0.012 | 0.0133 ± 0.013 | 0.032 ± 0.022 | 0.0773 ± 0.046 | 0.0133 ± 0.014
128 µg/mL | 0.0183 ± 0.018 | 0.025 ± 0.024 | 0.0327 ± 0.033 | 0.0423 ± 0.035 | 0.024 ± 0.017
